From patent US7553667B2, “Regulation of gene expression using chromatin remodelling factors” (Her Majesty the Queen in right of Canada as represented by …, priority 2002, dated 2009)

What was measured:
[1] = tested on: BnSCL1 gene expression; assay: Quantitative one-step RT-PCR of BnSCL1 expression in treated seedlings; assay type: in vivo, Brassica napus
Method: In exogenous applied auxin treatments, four-leaf stage seedlings grown at 20° C. were treated with a foliar spray containing 1 mM 2,4-D and 50 mM sodium phosphate, pH 7.5. The four leaves were collected at 30 min, 60 min and 180 min after the first foliar application of 2,4-D. For the measurement of response of shoots and roots to auxin, sterilized seeds were germinated on plates in a growth chamber with continuous light at 20° C., and 10 dpg seedlings were supplied with varied concentration of 2,4-D. In the auxin transport inhibition experiments, 9 dpg seedlings were incubated in the medium supplemented with 50 μM NPA dissolved in 0.1% DMSO for 24 h before the 2,4-D treatment. For the HDAC inhibitor treatments, 10 mM sodium butyrate was added onto the growth medium and incubated for 24 h followed by exogenous 2,4-D application at varied concentrations.
Total RNA extracted as described above was treated with Amplification Grade Deoxyribonuclease I (GibcoL BRL) following the manufacture's instructions. The RNA samples were then directly used for reverse transcription prior to amplification without purification. The RT-PCR was quantitatively performed and completed in a one-step reaction using […] One-Step RT-PCR System (GibcoL BRL) as described by Gao et al. (2002). Gene-specific sense and anti-sense primers used to generate a 960 bp fragment of Brassica napus Actin, as an internal standard, were as described in Gao et al., (2002). Gene-specific primers for the generation of BnSCL1, BnIAA1 and BnIAA12 fragments were as follows: […]

[2] = tested on: bnKCP1 expression; assay: Northern blot of bnKCP1 expression in leaves of treated seedlings; assay type: in vivo, Brassica napus; conditions: for bnKCP1 transcript in leaves after treatment: four-leaf stage seedlings, room temperature, 10 μM inomycin or 20 mM LaCl3
Method: Brassica napus L. cv Cascade (winter type), Westar (spring type) and DES010 (spring type) were used for the isolation of genomic DNA and total RNA. Leaves, flowers, stems, siliques and immature seeds were harvested from plants cultured in a controlled-environment greenhouse programmed for a photoperiod of 16 h day and 8 h night. Roots were obtained by culturing sterilized seeds in 0.8% agar plates containing ½ MS medium and 1% sucrose. For cold acclimation (4° C.), abscisic acid (250 μM), drought and high salt (850 mM NaCl) treatments, four-leaf stage seedlings were treated and fourth fully expanded leaf blades were harvested as described by Gao et al. (2002). LaCl3 and inomycin treatments were carried out by watering four-leaf stage plants with 20 mM LaCl3 and 10 μM inomycin, respectively. Plants were covered with SARAN Wrap to slow evaporation.
Total RNA was isolated from the tissues of B. napus L. cv DES010. These included leaves and stems of four-leaf stage seedlings, flowers, immature siliques of adult plants, and roots of cultured seedlings as described by Gao et al. (2001). Probe labelling, hybridization, washing and membrane stripping were performed as described above in the Southern blot analysis Section.

[3] = target: T1, GST-HDA19 (Arabidopsis thaliana, UniProt O22446); assay: GST pulldown affinity assay of bnKCP1 and mutants with GST-HDA19; assay type: binding; conditions: [35S]Met-labeled in vitro translated protein
T1 construct: made in house; host or cells: E. coli BL21-CodonPlus (DE3)-RP
T1 sequence (O22446 1-501): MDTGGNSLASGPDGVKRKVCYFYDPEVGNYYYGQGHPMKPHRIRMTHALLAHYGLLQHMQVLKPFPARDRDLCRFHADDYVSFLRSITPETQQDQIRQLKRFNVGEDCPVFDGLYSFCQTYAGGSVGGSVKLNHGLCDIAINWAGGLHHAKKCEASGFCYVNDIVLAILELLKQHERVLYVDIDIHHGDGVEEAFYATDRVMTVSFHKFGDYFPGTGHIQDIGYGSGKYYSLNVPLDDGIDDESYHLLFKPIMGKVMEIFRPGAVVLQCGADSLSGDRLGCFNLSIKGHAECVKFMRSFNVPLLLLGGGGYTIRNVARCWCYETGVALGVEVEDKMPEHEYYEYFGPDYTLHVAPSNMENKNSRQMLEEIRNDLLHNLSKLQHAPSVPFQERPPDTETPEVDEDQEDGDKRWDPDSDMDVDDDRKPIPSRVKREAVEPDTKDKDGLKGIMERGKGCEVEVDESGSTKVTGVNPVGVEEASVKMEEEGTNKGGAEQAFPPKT
Description: (§1) The full coding regions of the Arabidopsis HAT, Gcn5 (Dr. M. Thomashow, Michigan State University, MI), and HDA19 (Accession # AF195547) were PCR amplified, sequence analyzed and inserted in-frame with the GST (glutathione s-transferase) into the SalI and NotI sites of vector pGEX-6P-2 (Amersham Pharmacia). The forward used for the amplification of Gcn5 was:
(§2) Recombinant pGEX-6P-2 plasmids were used to transform E. coli BL21-CodonPlus (DE3)-RP competent cells (Stratagene). Expression and purification under non-denaturing conditions were carried out as described by Gao et al. (Gao, M.-J. et al., 2002). The GST-Gcn5 and GST-HDA19 fusion proteins were analyzed by 7.5% SDS-PAGE (SDS-polyacrylamide gel electrophoresis) and western blotting with rabbit anti-GST-Pi polyclonal antibody (Chemicon) using ECL Western blotting analysis system (Amersham Pharmacia).
(§3) Full-length bnKCP1 and truncated mutant bnKCP1^1-160 and bnKCP1^1-80 proteins labeled with [^35S]methionine were produced using TNT-Quick Coupled Transcription/Translation System (Promega) according to the manufacture's instructions, with some modifications. A total of 1 μl of RNase inhibitor (GibcoL BRL) and 1 μl of protease inhibitors set (Roche) were added to the lysate reaction. After incubation for 90 min at 30° C., RNase A was added to the reaction to a final concentration of 0.2 mg/ml and incubated for 5 min at the same temperature.
In vitro protein interaction was detected with GST pulldown affinity assays as described by Ahmad et al. (1999) with some modifications. Briefly, 6 μg of GST or 4 μg of GST-fusion protein was incubated with 5 μl of [^35S]Met-labeled translation mixture in 200 μl of bead-binding buffer (50 mM K-phosphate, pH 7.6, 450 mM KCl, 10 mM MgCl2, 10% glycerol, 1% Triton X-100, 1% BSA and 1 μl of diluted 1:12 protease inhibitors set) for 1 h at room temperature. After incubation, 20 μl of 50% slurry of glutathione-Sepharose beads containing 10 mg/ml of BSA and 4 μg of EtBr was mixed with the reaction mixture followed by gentle rotation for 1 h at 4° C. After washing six times with 1.2 ml of bead-binding buffer without BSA and EtBr but containing 12 μl of protease inhibitors set (Roche), the bound proteins were eluted with 30 μl of 2×SDS loading buffer, boiled for 2 min and analyzed by 12% SDS-PAGE. After electrophoresis, the gels were dried, treated with Amplify (Amersham Pharmacia) and subjected to fluorography.

[4] = target: T2, GST-Gcn5 (Arabidopsis thaliana, UniProt Q9AR19); assay: GST pulldown affinity assay of bnKCP1 and mutants with GST-Gcn5; assay type: binding; conditions: [35S]Met-labeled in vitro translated protein
T2 construct: made in house; host or cells: E. coli BL21-CodonPlus (DE3)-RP
T2 sequence (Q9AR19 1-568): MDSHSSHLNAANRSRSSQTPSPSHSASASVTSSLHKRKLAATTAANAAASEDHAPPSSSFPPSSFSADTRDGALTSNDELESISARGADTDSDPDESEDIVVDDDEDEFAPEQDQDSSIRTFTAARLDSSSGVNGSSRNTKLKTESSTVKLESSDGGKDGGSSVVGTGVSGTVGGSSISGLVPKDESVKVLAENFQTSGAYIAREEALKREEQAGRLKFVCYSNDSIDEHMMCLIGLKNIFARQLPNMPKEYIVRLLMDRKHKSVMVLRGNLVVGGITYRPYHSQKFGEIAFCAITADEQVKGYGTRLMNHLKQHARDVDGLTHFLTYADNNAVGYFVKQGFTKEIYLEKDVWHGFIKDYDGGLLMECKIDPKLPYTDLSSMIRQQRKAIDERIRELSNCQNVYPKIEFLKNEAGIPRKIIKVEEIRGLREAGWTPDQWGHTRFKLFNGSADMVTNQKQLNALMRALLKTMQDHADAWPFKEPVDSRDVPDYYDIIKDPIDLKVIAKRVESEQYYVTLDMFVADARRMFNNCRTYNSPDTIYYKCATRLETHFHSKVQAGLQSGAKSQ
Description: as §1, §2, §3
In vitro protein interaction was detected with GST pulldown affinity assays as described by Ahmad et al. (1999) with some modifications. […] After washing six times with 1.2 ml of bead-binding buffer without BSA and EtBr but containing 12 μl of protease inhibitors set (Roche), the bound proteins were eluted with 30 μl of 2×SDS loading buffer, boiled for 2 min and analyzed by 12% SDS-PAGE. […]

[5] = tested on: lacZ reporter gene driven by promoter containing GAL4 DNA binding sites; assay: Transactivation assay of bnKCP1 using yeast one-hybrid system; assay type: cell-based, yeast MaV203; conditions: transactivation in yeast
Description: Effector plasmids pDBLeu-bnKCP1^1-160, pDBLeu-bnKCP1^1-80, pDBLeu-bnKCP1^81-215 and pDBLeu-bnKCP1 were constructed by ligating the PCR-amplified fragments ΔbnKCP1^1-160, ΔbnKCP1^1-80, ΔbnKCP1^81-215 and the coding region of bnKCP1 into the SalI/NotI sites of pDBLeu vector (GibcoL BRL) in-frame with the GAL4 DB sequence. The oligonucleotide primers for PCR amplification were as follows: […]
The three reporter genes, lacZ, HIS3 and URA3, which were chromosomally integrated in the genome of MaV203 yeast cells were driven by unrelated promoters containing GAL4 DNA binding sites (GibcoL BRL). For transient assays, the effector constructs or the negative control vector pDBLeu were transferred to the MaV203 yeast cells. The β-galactosidase activity was measured using CPRG (chlorophenol red-β-D-galactopyranoside) according to the manufacturer's instructions (GibcoL BRL). The MaV203 cells containing plasmids pDBLeu-HDA19 and pPC86-bnKCP1 were used as the positive control. In addition, we used three yeast control strains A, B, and C (GibcoL BRL), which were developed to contain plasmid pairs expressing fusion proteins with none, weak and moderately strong protein-protein interaction strength, respectively. Transient Expression of the GUS-bnCKP1 Fusion Protein

For `O=C(O)COc1ccc(Cl)cc1Cl` [2,4-D], the “BnSCL1 expression in roots” value ([1]; 10 dpg seedlings, 100 μM required to produce an effect) was “upregulated”, the “expression of BnSCL1 in shoots” value ([1]; 10 dpg seedlings, even at the lowest level (1 pM)) was “rapidly downregulated” and the “increase of BnSCL1 mRNA accumulation” value ([1]; four-leaf stage seedlings, leaves, within 30 min of 1 mM foliar application, vs untreated plants) was “approximately 50%”.

`CC1=CC(=O)CC(C)(C)[C@@]1(O)/C=C/C(C)=C\C(=O)O` [ABA, abscisic acid] was tested, and the “bnKCP1 expression in leaf blades after treatment” value ([2]; exogenous application for up to 8 hours, data not shown) was “not detected”.

`[Cl][La]([Cl])[Cl]` [LaCl3] was tested, and the “bnKCP1 transcript in leaves after treatment” value [2] was “undetectable”.

With `O=C(O)c1ccccc1C(=O)Nc1cccc2ccccc12` [NPA, naphthylphthalamic acid] the “BnSCL1 mRNA accumulation profiles in response to auxin in shoots and roots” value ([1]; 50 μM for 24 h before 2,4-D at different concentrations) was “not changed”.

In the case of inomycin, the “bnKCP1 transcript in leaves after treatment” value [2] is reported as “rapid (2 hrs) but short-lived”.

B1: bnKCPG^188: bnKCP1 with S188 mutated to G188 by site-directed mutagenesis (protein)
chain: MAGGGPTFSIELSAYGSDLPTDKASGDIPNEEGSGLSRVGSGIWSGRTVDYSSESSSSIGTPGDSEEEDEESEEDNDEEELGLASLRSLEDSLPSKGLSSHYKGKSKSFGNLGEIGSVKEVPKQENPLNKKRRLQIYNKLARKSFYSWQNPKSMPLLPVHEDNDDEEGDDGDLSDEERGGDVLARRPGFKNRALKSMSCFALSDLQEEEEEEEDE
In the case of B1, the “in vitro binding to GST-HDA19” value [3] is reported as “significantly reduced binding”.

B2: ΔbnKCP1^1-160: C-terminal truncated mutant of bnKCP1, residues 1-160, lacking the KID domain (protein)
chain: MAGGGPTFSIELSAYGSDLPTDKASGDIPNEEGSGLSRVGSGIWSGRTVDYSSESSSSIGTPGDSEEEDEESEEDNDEEELGLASLRSLEDSLPSKGLSSHYKGKSKSFGNLGEIGSVKEVPKQENPLNKKRRLQIYNKLARKSFYSWQNPKSMPLLPVH
B2 was tested, and the “in vitro binding to GST-Gcn5” value [4] was “no interaction”, the “in vitro binding to GST-HDA19” value [3] was “no interaction” and the “influence of deletion of KID or GKSKS domains on β-galactosidase activity” value [5] was “no significant influence”.

B3: ΔbnKCP1^1-80: C-terminal truncated mutant of bnKCP1, residues 1-80, lacking the KID domain (protein)
chain: MAGGGPTFSIELSAYGSDLPTDKASGDIPNEEGSGLSRVGSGIWSGRTVDYSSESSSSIGTPGDSEEEDEESEEDNDEEE
For B3, the “in vitro binding to GST-Gcn5” value [4] was “no interaction”, the “in vitro binding to GST-HDA19” value [3] was “no interaction” and the “influence of deletion of KID or GKSKS domains on β-galactosidase activity” value [5] was “no significant influence”.
